Data on two compounds can be found in paper PMC7496286, “The Selectivity of Fosfosal for STAT5b over STAT5a is Mediated by Arg566 in the Linker Domain” (Chembiochem, 2020).

The target of one experiment is T1, STAT5b SH2 domain (Homo sapiens, UniProt P51692).
T1 construct: His; made in house
T1 sequence (P51692 1-787): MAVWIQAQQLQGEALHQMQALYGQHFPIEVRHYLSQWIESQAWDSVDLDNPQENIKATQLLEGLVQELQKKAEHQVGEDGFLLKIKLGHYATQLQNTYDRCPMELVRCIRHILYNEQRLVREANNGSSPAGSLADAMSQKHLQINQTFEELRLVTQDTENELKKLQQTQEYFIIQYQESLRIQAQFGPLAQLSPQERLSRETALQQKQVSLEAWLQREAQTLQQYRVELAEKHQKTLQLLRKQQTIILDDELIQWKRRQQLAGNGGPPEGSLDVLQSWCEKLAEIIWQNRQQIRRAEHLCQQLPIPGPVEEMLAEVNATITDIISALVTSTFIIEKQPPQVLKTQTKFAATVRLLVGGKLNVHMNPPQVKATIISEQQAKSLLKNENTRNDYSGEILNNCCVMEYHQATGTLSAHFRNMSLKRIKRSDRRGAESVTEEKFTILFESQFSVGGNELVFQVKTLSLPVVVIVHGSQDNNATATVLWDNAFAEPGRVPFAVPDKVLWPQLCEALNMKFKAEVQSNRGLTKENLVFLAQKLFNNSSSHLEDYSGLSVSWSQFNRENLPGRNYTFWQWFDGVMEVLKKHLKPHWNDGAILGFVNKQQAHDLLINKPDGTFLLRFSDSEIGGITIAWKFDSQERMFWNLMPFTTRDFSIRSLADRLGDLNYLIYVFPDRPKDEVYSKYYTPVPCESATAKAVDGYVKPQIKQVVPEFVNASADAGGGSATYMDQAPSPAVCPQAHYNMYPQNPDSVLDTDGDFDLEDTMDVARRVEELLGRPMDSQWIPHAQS
Put plainly: Fluorescence polarization (FP)-based competitive binding assay, wild-type STAT5b. On the procedure: (§1) Fluorescence polarization assays
(§2) The ability of test compounds to displace 5-carboxyfluorescein-GY(PO3H2)LVLDKW (final concentration: 10 nM) from the SH2 domain of STAT5a/b proteins was analyzed. Proteins […]
(§3) was applied in dilution series comprising the following concentrations: 0.024 – 200 µM […]
(§4) and 0.146 – 600 µM (STAT5b Arg566Glu), respectively. The assays were performed in buffer containing 10 mM Tris, 50 mM NaCl, 1 mM DTT, 1 mM EDTA and 0.1% (v/v) NP-40. Fosfosal was dissolved in DMSO. STAT5a/b proteins and fosfosal were incubated at room temperature for 1 h before adding peptide. Samples were transferred to 384-well microtiter plates and fluorescence polarization was read after a further 1 h incubation time. All measurements were performed in triplicate (n=3), except for STAT5b (n=6) and STAT5a Trp566Arg (n=4). Percent binding was calculated based on a logarithmic curve fit using OriginPro 8G software. IC50 values were converted to Ki values using the published equation.[4] […]
[2] N. Elumalai, A. Berg, K. Natarajan, A. Scharow, T. Berg, Angew. Chem. Int. Ed. 2015, […]
[3] M. Gräber, W. Janczyk, B. Sperl, N. Elumalai, C. Kozany, F. Hausch, T. A. Holak, T.
(§5) [4] Z. Nikolovska-Coleska, R. Wang, X. Fang, H. Pan, Y. Tomita, P. Li, P. P. Roller, K.
(§6) Krajewski, N. G. Saito, J. A. Stuckey, S. Wang, Anal. Biochem. 2004, 332, 261-273.
A general note: In fluorescence polarisation assays a small probe gives low polarisation when free and higher when bound to something large.

Another experiment addresses T2, STAT5a SH2 domain (Homo sapiens, UniProt P42229).
T2 construct: His; made in house
T2 sequence (P42229 1-794): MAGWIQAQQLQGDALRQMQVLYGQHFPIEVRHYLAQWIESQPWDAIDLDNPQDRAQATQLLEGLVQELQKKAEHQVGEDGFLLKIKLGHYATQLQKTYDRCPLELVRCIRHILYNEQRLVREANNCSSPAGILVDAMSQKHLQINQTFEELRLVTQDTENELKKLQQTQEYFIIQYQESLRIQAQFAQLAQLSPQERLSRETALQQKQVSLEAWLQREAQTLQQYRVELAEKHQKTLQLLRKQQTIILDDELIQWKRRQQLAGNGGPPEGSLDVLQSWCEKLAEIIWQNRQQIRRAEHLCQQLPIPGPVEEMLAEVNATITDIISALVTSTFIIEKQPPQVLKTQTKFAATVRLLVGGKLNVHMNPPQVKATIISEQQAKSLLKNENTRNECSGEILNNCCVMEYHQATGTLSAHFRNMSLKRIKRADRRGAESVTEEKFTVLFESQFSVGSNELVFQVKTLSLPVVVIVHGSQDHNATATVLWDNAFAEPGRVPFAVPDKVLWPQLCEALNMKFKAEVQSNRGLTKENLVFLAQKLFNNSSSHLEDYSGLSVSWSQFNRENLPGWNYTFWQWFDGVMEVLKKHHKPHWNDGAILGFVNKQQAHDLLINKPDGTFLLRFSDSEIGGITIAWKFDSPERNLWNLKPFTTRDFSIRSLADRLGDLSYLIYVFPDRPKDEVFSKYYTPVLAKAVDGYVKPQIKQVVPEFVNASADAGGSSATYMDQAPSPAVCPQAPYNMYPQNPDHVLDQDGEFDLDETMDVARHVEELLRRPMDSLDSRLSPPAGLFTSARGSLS
Put plainly: FP-based competitive binding assay, wild-type STAT5a. On the procedure: as §1, §2, §3, §4, §5, §6

Values joined by “and” are separate entries in the source; they are usually repeats but may differ in a detail not shown here. Identical values can stand only once.

The term Kd denotes a measure of binding affinity in units of concentration. A higher Kd goes with weaker binding. As to `CC(C)C[C@H](NC(=O)[C@H](Cc1ccc(OP(=O)(O)O)cc1)NC(=O)CNC(=O)c1ccc2c(c1)C(=O)OC21c2ccc(O)cc2Oc2cc(O)ccc21)C(=O)N[C@H](C(=O)N[C@@H](CC(C)C)C(=O)N[C@@H](CC(=O)O)C(=O)N[C@@H](CCCCN)C(=O)N[C@@H](Cc1c[nH]c2ccccc12)C(=O)O)C(C)C` [5-carboxyfluorescein-GY(PO3H2)LVLDKW], the equilibrium dissociation constant (Kd) on STAT5b SH2 domain (Kd, fluorescent tracer peptide binding to STAT5b) is 0.082 µM and 0.095 µM; at STAT5a SH2 domain, 0.147 µM.

What is called IC50 is the point on the concentration scale where inhibition reaches its midpoint. Low values mean greater potency in that assay, high ones weaker potency in that assay. For orientation: Ki means a dissociation constant, usually derived from enzyme kinetics or from competition with a known ligand. As to `O=C(O)c1ccccc1OP(=O)(O)O` [fosfosal, O‐phosphorylated salicylic acid], the “selectivity for STAT5b over STAT5a” value at STAT5b SH2 domain (Ki STAT5a versus Ki STAT5b) was “fivefold”. For the same compound, the half-maximal inhibitory concentration (IC50) was 59.5 ± 3.6 µM on STAT5b SH2 domain (wild-type STAT5b) and 299 ± 17 µM on STAT5a SH2 domain (wild-type STAT5a). Further, the inhibitory constant (Ki) on STAT5b SH2 domain (wild-type STAT5b, Ki calculated from IC50 with published equation, n=6) is 29.3 ± 1.8 µM; at STAT5a SH2 domain (wild-type STAT5a, Ki calculated from IC50 with published equation), 148 ± 9 µM.
